According to publication PMC5061317, “Transactivation Assays to Assess Canine and Rodent Pregnane X Receptor (PXR) and Constitutive Androstane Receptor (CAR) Activation” (PLoS ONE, 2016):
Where “and” joins values, the source holds several entries; their conditions need not be identical. Identical values can stand only once. Counter-ions that a name gives are not always drawn.

Experiments:
rat CAR3 [1] = target: T1, rat CAR3 (Rattus norvegicus, UniProt Q9QUS1, INS280APYLT); assay: Rat CAR3 transactivation assay with CYP2B6 promoter/enhancer reporter (rCAR3/2B6); type: cell-based; settings: 10 μM, 48 h, above DMSO treated cells, mean ± SE
T1 construct: expressed in transfected cells; host or cells: HepG2 (transient transfection)
T1 sequence (Q9QUS1 with tags, fused parts or gaps INS280APYLT): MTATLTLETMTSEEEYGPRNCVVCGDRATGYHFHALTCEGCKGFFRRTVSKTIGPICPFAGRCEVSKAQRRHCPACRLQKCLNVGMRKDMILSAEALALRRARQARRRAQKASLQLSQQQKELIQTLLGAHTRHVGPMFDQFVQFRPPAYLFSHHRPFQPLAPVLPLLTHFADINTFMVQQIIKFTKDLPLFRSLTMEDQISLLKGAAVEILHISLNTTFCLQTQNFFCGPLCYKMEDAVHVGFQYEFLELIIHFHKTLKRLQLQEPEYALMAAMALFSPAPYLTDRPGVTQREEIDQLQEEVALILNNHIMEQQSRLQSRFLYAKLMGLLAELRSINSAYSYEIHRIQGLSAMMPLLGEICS
T1 sequence (P19793 1-462 partner): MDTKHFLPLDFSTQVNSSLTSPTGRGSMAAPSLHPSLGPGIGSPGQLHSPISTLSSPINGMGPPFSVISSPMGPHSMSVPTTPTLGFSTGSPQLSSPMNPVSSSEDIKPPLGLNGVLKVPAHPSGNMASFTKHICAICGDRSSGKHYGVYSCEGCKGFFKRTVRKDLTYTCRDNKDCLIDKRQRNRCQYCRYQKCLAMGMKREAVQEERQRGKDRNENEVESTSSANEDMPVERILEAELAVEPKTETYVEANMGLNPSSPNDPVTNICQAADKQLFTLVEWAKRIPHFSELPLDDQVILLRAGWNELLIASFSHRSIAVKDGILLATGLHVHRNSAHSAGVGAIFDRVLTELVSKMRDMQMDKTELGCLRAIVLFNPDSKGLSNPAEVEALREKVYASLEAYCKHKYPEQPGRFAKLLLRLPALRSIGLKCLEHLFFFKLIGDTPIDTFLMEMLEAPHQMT
Protocol: (§1) To construct an expression vector harboring canine CAR3, reference CAR sequence (CAR1) for canine (Accession number: FJ202015) was amplified from C. familiaris liver cDNA. PCR conditions were 98°C for 2 min, 30 cycles of 98°C for 30 sec and 72°C for 1 min, followed by 72°C for 7 min and cooling to 4°C. The resulting PCR product was cloned into the pCR2.1 vector for sequence analysis and subsequently cloned into a pCDNA 3.1 expression vector (Life Technologies, Carlsbad, CA). […] Canine CAR1 was mutated to obtain CAR3 by introducing […] motif. This was performed using forward primer: 5’- […] -3’ and reverse primer: 5’- […] -3’ in concert with QuikChange Lightning mutagenesis kit (Agilent) according to manufacturer’s instructions. The presence of correct canine CAR3 was verified by sequence analysis. […]
(§2) Assessment of cell viability and transcriptional activation was performed in the same wells using the CellTiter-Fluor cell viability assay and ONE-Glo Luciferase assay. Fluorescence was determined on a BioTek Synergy 2 Luminometer (BioTek Instruments, Winooski, VT) with excitation at 400 nm and emission at 510 nm. Following viability determination luminescence was monitored.
(§3) Fluorescent light units were utilized to normalize for viable cell number in the luciferase (transcriptional activation) assay and expressed as the average of three determinations/chemical agent and concentration. […]

rat CAR3 [2] = target: T1, rat CAR3; assay: Rat CAR3 transactivation assay with CYP3A4 promoter/enhancer reporter (rCAR3/3A4); type: cell-based; settings: 10 μM, 48 h, above DMSO treated cells, mean ± SE
Protocol: as §1, §2, §3

rat PXR = target: T2, rat PXR (Rattus norvegicus, UniProt Q9R1A7); assay: Rat PXR transactivation assay (rPXR stable cell line, CYP3A4 luciferase reporter); settings: 48 h
T2 sequence (Q9R1A7 1-431): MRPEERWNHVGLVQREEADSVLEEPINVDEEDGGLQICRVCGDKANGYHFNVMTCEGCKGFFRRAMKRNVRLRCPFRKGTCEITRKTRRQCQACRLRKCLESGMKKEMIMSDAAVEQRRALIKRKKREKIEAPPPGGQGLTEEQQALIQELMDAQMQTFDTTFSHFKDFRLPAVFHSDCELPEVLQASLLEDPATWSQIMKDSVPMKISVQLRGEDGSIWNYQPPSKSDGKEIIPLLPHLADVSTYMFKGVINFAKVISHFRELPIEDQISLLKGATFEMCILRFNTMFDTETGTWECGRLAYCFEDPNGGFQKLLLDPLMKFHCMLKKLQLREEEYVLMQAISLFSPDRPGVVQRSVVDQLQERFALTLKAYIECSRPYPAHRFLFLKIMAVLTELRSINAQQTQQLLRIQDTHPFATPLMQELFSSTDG
Protocol: Human hepatoma cell line, HepG2 was obtained from American Type Culture Collection (Rockville, MD) and maintained in DMEM supplemented with 10% FBS, 100 U/ml penicillin and 100 μg /ml streptomycin at 37°C, 5% CO2. The stable cell line, rPXR, harboring rat PXR and the CYP3A4 promoter and enhancer linked to luciferase was produced and maintained as described previously.
(§4) For luciferase reporter assays involving transient transfectants, either freshly transfected cells or cells that have been stored in liquid N2 were seeded in 96-well plates as described above. For the rPXR stable cell line, cells were seeded into a 96-well plate at a density of 2x10^4 cells/well. Following a 24 h recovery, transiently transfected cells or stably integrated rat PXR cells were treated with various chemicals dissolved in DMSO in triplicate wells. Phenobarbital was the only compound that was dissolved in sterile water. […] All treatments were performed for 48 h.
as §2
(§5) Fluorescent light units were utilized to normalize for viable cell number in the luciferase (transcriptional activation) assay and expressed as the average of three determinations/chemical agent and concentration. The average luminescent units were divided by the average for solvent control to determine the fold activation. Data is expressed as mean ± standard error (SE) of three separate experiments performed in triplicate. The data was further normalized by dividing the values for each chemical by values obtained from assays with empty expression vector control. One-way multiple comparison ANOVA test in concert with Uncorrected Fisher’s LSD posttest was used to compare treatment groups with the negative controls. The significance threshold was set at p < 0.01. All statistical analyses were performed using Prism V6.0c (GraphPad, San Diego, CA). To determine receptor activation kinetics for positive controls, EC50 and EMAX values were calculated using nonlinear regression analysis of typical log dose-response curves using Prism V6.0c (GraphPad, San Diego, CA).

canine PXR = assay: Canine PXR transactivation assay (HepG2 transiently transfected, CYP3A4 luciferase reporter); settings: 48 h
Protocol: To generate canine PXR (Accession number: XM_535750.3) with a start codon replicating that of human PXR (Accession number: AY091855), a Canis lupus familiaris liver cDNA was employed as the template. PCR conditions were 98°C for 2 min, 35 cycles of 98°C for 1 min, 59°C for 1 min and 72°C for 1 min 45 sec, followed by 72°C for 7 min and cooling to 4°C.
(§6) HepG2 cells were seeded in 10-cm cell culture dishes and incubated until 60–70% confluency (about 5 days). For transfections, dishes were rinsed with phosphate buffered saline (PBS) and cells incubated for 1–4 h in OptiMEM (Life Technologies). LipofectAMINE 2000 (Life Technologies) was used at a 2:1 ratio (μl of transfection reagent to μg of DNA). For transfections involving canine and rat CAR3, 24 μg of total DNA was used (9 μg of luciferase reporter construct, 7.5 μg of either empty expression vector or CAR expression construct and 7.5 μg of the hRXRα construct). For transfections with the canine PXR, 21 μg of total DNA was employed (12 μg of luciferase reporter containing CYP3A4 proximal and distal enhancers and 9 μg of either empty expression vector or plasmid containing canine PXR). Transfected HepG2 cells were incubated at 37°C, 5% CO2 for 19–24 h. The cells were then trypsinized with TrypLE Express solution (Life Technologies) and either frozen in the presence of 10% DMSO for future use or seeded into clear bottom 96-well assay plate at a density of 5x10^4 cells/well and incubated at 37°C, 5% CO2 for 24 h.
as §4, §2, §5

canine CAR3 = canine CAR3 (Canis lupus familiaris, UniProt B6E443, INS263APYLT); settings: 10 μM, 48 h, above DMSO treated cells, mean ± SE
canine CAR3, sequence (B6E443 entry or part of it INS263APYLT, one chain of several): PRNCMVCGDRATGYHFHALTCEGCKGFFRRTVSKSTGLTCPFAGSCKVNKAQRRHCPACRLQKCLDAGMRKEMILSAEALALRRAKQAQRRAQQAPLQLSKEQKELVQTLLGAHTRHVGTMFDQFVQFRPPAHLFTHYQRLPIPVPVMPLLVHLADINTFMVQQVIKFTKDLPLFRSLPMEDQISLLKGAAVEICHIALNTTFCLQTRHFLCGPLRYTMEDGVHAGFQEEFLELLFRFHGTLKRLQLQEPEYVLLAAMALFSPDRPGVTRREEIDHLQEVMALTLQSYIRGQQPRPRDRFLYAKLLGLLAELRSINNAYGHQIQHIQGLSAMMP
Protocol: To construct an expression vector harboring canine CAR3, reference CAR sequence (CAR1) for canine (Accession number: FJ202015) was amplified from C. familiaris liver cDNA. PCR conditions were 98°C for 2 min, 30 cycles of 98°C for 30 sec and 72°C for 1 min, followed by 72°C for 7 min and cooling to 4°C. The resulting PCR product was cloned into the pCR2.1 vector for sequence analysis and subsequently cloned into a pCDNA 3.1 expression vector (Life Technologies, Carlsbad, CA). […] Canine CAR1 was mutated to obtain CAR3 by introducing […] motif. This was performed using forward primer: 5’- […] -3’ and reverse primer: 5’- […] -3’ in concert with QuikChange Lightning mutagenesis kit (Agilent) according to manufacturer’s instructions. The presence of correct canine CAR3 was verified by sequence analysis. CYP2B6 luciferase reporter vector containing the XREM-PBREM promoter and enhancer was obtained from Dr. Omiecinski (Penn State University) and has been described previously. To generate rat CAR3, a plasmid containing reference CAR (CAR1) underwent mutagenesis as described above using 5’- […] -3’ as the forward primer and 5’- […] -3’ as the reverse primer. […] Firefly luciferase reporter construct harboring CYP3A4 proximal and distal enhancer regions has been described earlier.
as §6, with “The cells were then trypsinized with TrypLE Express solution (Life Technologies) and either frozen in the presence of 10% DMSO for future use or seeded into clear bottom 96-well assay plate at a density of 5x10^4 cells/well and incubated at 37°C, 5% CO2 for 24 h.” left out
as §2, §3

[3] = 10 μM, above DMSO treated cells, mean ± SE
[4] = 100 μM, above DMSO treated cells, mean ± SE
[5] = panel of 19 compounds, concentration not given

With `O=c1cc(-c2ccccc2)oc2c1ccc1ccccc12` [ANF, α-naphthoflavone] the “Rat CAR3 Fold Activation, CYP2B6 promoter and enhancer” value (rat CAR3 [1]) was 3.4 ± 0.8 fold and 3.4 ± 0.8^c fold and the “Rat CAR3 Fold Activation, CYP3A4 promoter and enhancer” value (rat CAR3 [2]) was “negligible effect”.
In the case of `O=C1Nc2ccc(Cl)cc2[C@@](C#CC2CC2)(C(F)(F)F)O1` [Efavirenz, efavirenz], the “Rat PXR Fold Activation” value (rat PXR; rat, 10 μM) is reported as 7.5 ± 2.3 fold, the “Rat CAR3 Fold Activation, CYP2B6 promoter and enhancer” value (rat CAR3 [1]) is reported as 3.9 ± 0.6 fold and the “Rat CAR3 Fold Activation, CYP3A4 promoter and enhancer” value (rat CAR3 [2]) is reported as 7.4 ± 3.3 fold.
For `Clc1ccc(-c2nc3sccn3c2C=NOCc2ccc(Cl)c(Cl)c2)cc1` [CITCO, 6-(4-Chlorophenyl)imidazo[2,1-b][1,3]thiazole-5-carbaldehyde O-(3,4-dichlorobenzyl)oxime], the “Canine PXR Fold Activation” value (canine PXR; [3]) was 5.4 ± 2.1 fold.
In the case of `CCOP(=O)(OCC)C(=Cc1cc(C(C)(C)C)c(O)c(C(C)(C)C)c1)P(=O)(OCC)OCC` [SR12813, tetraethyl 2-(3,5-di-tert-butyl-4-hydroxyphenyl)ethenyl-1,1-bisphosphonate], the “Rat PXR Fold Activation” value (rat PXR; [3]) is reported as 6.1 ± 0.6 fold, the “Canine PXR Fold Activation” value (canine PXR; [3]) is reported as 60.1 ± 3.1 fold and the “Emax, canine PXR activation” value (canine PXR; dose-response 0.1 to 30 μM, above 0.1% DMSO) is reported as 60.3 ± 5.5 fold and 60.3 fold. For the same compound, the EC50 (canine PXR; read-out: EC50, canine PXR activation, dose-response 0.1 to 30 μM, nonlinear regression) was 1900 ± 200 nM, the “Canine CAR3 Fold Activation, CYP2B6 promoter and enhancer” value (canine CAR3) was “activation only in the presence of the CYP3A4 promoter” and the “Canine CAR3 Fold Activation, CYP3A4 promoter and enhancer” value (canine CAR3) was 3.1 ± 0.7 fold and 3.1 ± 0.7^d fold.
In the case of `COc1ccc2[nH]c([S+]([O-])Cc3ncc(C)c(OC)c3C)nc2c1` (stereo not shown) [Omeprazole, omeprazole], the “Rat PXR Fold Activation” value (rat PXR; rat, 100 μM) is reported as 9.8 ± 0.9 fold and the “Canine PXR Fold Activation” value (canine PXR; [4]) is reported as 9.6 ± 1.3 fold.
For `CC(=O)[C@H]1[C@H](C#N)C[C@H]2[C@@H]3CC=C4C[C@@H](O)CC[C@]4(C)[C@H]3CC[C@@]21C` [Pregnenolone 16α carbonitrile, pregnenolone-16 α -carbonitrile], the “Emax, rat PXR activation” value (rat PXR; dose-response curve, above 0.1% DMSO) was 11.4 fold and the EC50 (rat PXR; read-out: EC50, rat PXR activation, dose-response curve, nonlinear regression) was 140 nM.
With `Clc1cnc(Oc2ccc(Oc3ncc(Cl)cc3Cl)cc2)c(Cl)c1` [TCPOBOP, 1,4-Bis-[2-(3,5-dichloropyridyloxy)]benzene, 3,3′,5,5′-Tetrachloro-1,4-bis(pyridyloxy)benzene] the “Rat PXR Fold Activation” value (rat PXR; [3]) was “failed to elicit significant activation”.
In the case of `CCCCC(CC)COC(=O)c1ccccc1C(=O)OCC(CC)CCCC` (stereo not shown) [DEHP, bis (2-ethylhexyl) phthalate], the “Rat PXR Fold Activation” value (rat PXR; [3]) is reported as “-”, the “Canine CAR3 Fold Activation, CYP2B6 promoter and enhancer” value (canine CAR3) is reported as 4.3 ± 0.8 fold and 4.3 ± 0.8^c fold and the “Canine CAR3 Fold Activation, CYP3A4 promoter and enhancer” value (canine CAR3) is reported as “significant activation only when the CYP2B6 promoter was used”.
With `O=C1NC(=O)C(c2ccccc2)(c2ccccc2)N1` [phenytoin] the “Rat PXR Fold Activation” value (rat PXR; [4]) was “failed to elicit significant activation”, the “Rat PXR activation” value (rat PXR; [5]) was “failed to elicit a significant activation” and the “Canine PXR Fold Activation” value (canine PXR; [5]) was “failed to elicit a significant activation”.
`C=C[C@@]1(C)CC(=O)[C@]2(O)[C@@]3(C)[C@@H](O)CCC(C)(C)[C@@H]3[C@H](O)[C@H](OC(C)=O)[C@@]2(C)O1` [Forskolin, forskolin] was tested, and the “Rat PXR Fold Activation” value (rat PXR; rat, 10 μM) was 5.8 ± 0.5 fold and the “Canine PXR Fold Activation” value (canine PXR; [3]) was 5.6 ± 1.4 fold.
With `CCC1(c2ccccc2)C(=O)NC(=O)NC1=O` [Phenobarbital, phenobarbital sodium salt] the “Rat PXR activation” value (rat PXR; 1 mM, vehicle water) was “failed to elicit significant activation”, the “Rat PXR activation” value (rat PXR; [5]) was “failed to elicit a significant activation” and the “Canine PXR Fold Activation” value (canine PXR; [5]) was “failed to elicit a significant activation”.
